Measurements taken from US12172007B2, “Combination therapy of electric fields and an additional treatment for cancer and imaging” (University of Cincinnati, priority 2019, dated 2024).

Columns and labels:
[1] = Relaxivity of contrast agent at 7 T; assay type: physicochemical
From the text: The use of a paramagnetic gadolinium chelate-loaded SapC-DOPS (Gd-DTPA-BSA/SapC-DOPS) vesicles as a targeted contrast agent for imaging glioblastoma multiforme tumors are also useful in the present invention. Gd-DTPA-BSA/SapC-DOPS vesicles and Gd-DTPA display a similar relaxivity of 3.32 and 2.80 (s·mM)−1, respectively, at 7 T. According to the in vivo experiments, the R1 values of the tumor before injection of Gd-DTPA-BSA/SapC-DOPS vesicles, sham injected brain, and contralateral normal brain were 0.4676±0.010 s−1, 0.5216±0.034 s−1, and 0.5596±0.003 s−1, respectively. […] At 24 h postinjection, the tumor R1 remained elevated (7.9±1.5%, P<0.05) compared with the normal and sham brains, but it was statistically similar to the controls (4.7±2.0%, p>0.05). […] At 4 h, 10 h, and 20 h, the increase in T1 relaxation time is higher in the sham normal brain compared with sham tumor. By 24 h postinjection, the T1-weighted signal is similar in both tissues.

[2] = tested on: non-small cell lung cancer (NSCLC); conditions: cited from earlier work
[3] = tested on: HER2-negative breast cancer; conditions: phase I, cited from earlier work

O=C([O-])CN(CCN(CC(=O)[O-])CC(=O)O)CCN(CC(=O)[O-])CC(=O)O.[Gd+3] [Gd-DTPA]
relaxivity [1]: 2.80 s/mM

Bavituximab: chimeric monoclonal antibody that binds to PS
overall survival, Bavituximab + docetaxel versus docetaxel alone ([2]; advanced, previously treated NSCLC, phase III): no significant difference | overall survival versus placebo-treated patients ([2]; patients pre-treated with immune checkpoint inhibitors): increased overall survival | overall response rate ([3]; with paclitaxel as adjuvant therapy): 85% | tolerability ([3]; with paclitaxel): well tolerated
